Results on 53 compounds are retold here after PubChem BioAssay AID1996.

Structures are written as SMILES. Converted amounts (≈) assume the structure as drawn.

For the data set the following is noted: buffer; pH 7.4; 200.0 µM.
The kinetic solubility is the concentration staying in solution when a stock, usually in DMSO, is diluted into the medium. Compound `CC1CN(S(=O)(=O)c2cc(C(=O)NC(C)c3cccnc3)ccc2Cl)CC(C)O1` (stereo not drawn) showed a solubility (kinetic) greater than 65.7 µg/mL.
For `O=C(Cc1ccccc1)NC(=S)Nc1ccc(OC(F)F)cc1` the value was 11.2 µg/mL (≈ 33.3 µM); for `CCOC(=O)Cc1csc(NC(=O)Cc2ccccc2)n1`, greater than 45.7 µg/mL; for `CC(=O)/C(C#N)=C1\NC(=O)C(Cc2ccc(C)c(Cl)c2)S1` (stereo not drawn), greater than 48.1 µg/mL.
`Cc1nc(SCc2ccc(F)cc2)c2oc3ccccc3c2n1` yielded a kinetic solubility of less than 0.3 µg/mL.
The compound `COc1ccc2[nH]c(C(=O)NCCN3CCCCC3)cc2c1` gave a solubility (kinetic) of 39.7 µg/mL (≈ 132 µM).
Consider `Clc1cccc(CN2CCSCC2)c1`, for which the solubility (kinetic) is 3.8 µg/mL (≈ 16.7 µM).
As for `CC(=O)NCCc1c[nH]c2ccc(OCc3ccccc3)cc12`, the kinetic solubility was found to be 42.4 µg/mL (≈ 137 µM).
`CCN(CC(=O)NCc1ccc(F)cc1)C(=O)c1cc2ccccc2o1` showed a solubility (kinetic) of 47.2 µg/mL (≈ 133 µM).
Compound `Cc1cccc2cc3c(nc12)-c1ccccc1C3=O` yielded a solubility (kinetic) of less than 0.5 µg/mL.
For `COc1cc(C(=O)NCc2ccc3[nH]c(C)cc3c2)cc(OC)c1OC` the value was 12.5 µg/mL (≈ 35.3 µM); for `COc1ccccc1C(=O)NCCC(=O)NCc1cccs1`, greater than 47.8 µg/mL.
`Cn1cccc1/C=N\NC(=O)c1cncc(Br)c1` registered a solubility (kinetic) greater than 46.1 µg/mL.
As for `c1ccc2c(c1)COC(CN1CCCCC1)OC2`, the solubility (kinetic) was 35.6 µg/mL (≈ 144 µM).
In the case of `Cl.c1ccc2c(c1)nc1n2CCN1CCN1CCCC1`, the kinetic solubility is greater than 49.4 µg/mL.
In turn, `O=C(NCc1ccc(F)cc1F)c1cc(COc2c(F)cccc2F)on1` had a kinetic solubility of 1.5 µg/mL (≈ 3.94 µM).
Regarding `O=C(O)C1C2CCC(O2)C1C(=O)Nc1cccc(Cl)c1` (stereo not drawn), the solubility (kinetic) was 40.6 µg/mL (≈ 137 µM).
In turn, `Cc1cc(NC(=O)COc2cccc([N+](=O)[O-])c2)no1` registered a kinetic solubility of 2.9 µg/mL (≈ 10.5 µM).
For `Cc1nc(Cl)sc1C(=O)Nc1ccc(C(F)(F)F)cc1` the value was 6.6 µg/mL (≈ 20.6 µM); for `Cc1ccc(NC(=O)C2CCCN2C(=O)OCc2ccccc2)c(C)c1` (stereo not drawn), 18.5 µg/mL (≈ 52.5 µM); for `N#CCC(=O)Nc1ncc(Cc2ccccc2Cl)s1`, 1 µg/mL (≈ 3.43 µM).
As to `Cc1ccc(-c2cc(C(=O)N3CCC4(CC3)OCCO4)no2)cc1`, the solubility (kinetic) worked out at 44 µg/mL (≈ 134 µM).
Take `O=C(c1ncc[nH]1)c1cccs1`: the solubility (kinetic) is greater than 26.7 µg/mL.
As for `c1ccc(-n2cnc3ccccc32)nc1`, the solubility (kinetic) came to 26.3 µg/mL (≈ 135 µM).
For `O=C(NC(=S)Nc1ccccc1O)c1cccnc1`, the solubility (kinetic) is greater than 41 µg/mL.
In turn, `Cc1ccc(-c2[nH]c3ccccc3c2SCCN)cc1` had a solubility (kinetic) greater than 42.4 µg/mL.
The compound `Cc1ccnc(NC(=O)c2cc3ccccc3o2)c1` returned a kinetic solubility of 12.9 µg/mL (≈ 51.1 µM).
For `Cc1ccccc1C(=O)NC1CCSC1=O` (stereo not drawn) the value was greater than 35.3 µg/mL.
Take `Cc1nc2ccccc2c2c1C(=O)N(c1cccc(C(=O)O)c1)C2=O`: the kinetic solubility was greater than 49.8 µg/mL.
As to `Cc1ccc(NC(=S)N2CCN(S(C)(=O)=O)CC2)cc1C`, the solubility (kinetic) is 9.1 µg/mL (≈ 27.8 µM).
With `Cl.NC(=NCc1ccccc1)c1cccc([N+](=O)[O-])c1`, the kinetic solubility was greater than 43.8 µg/mL.
As for `COc1ccccc1NC(=O)CCN1C(=O)c2ccccc2C1=O`, the solubility (kinetic) is greater than 48.7 µg/mL.
For `COc1cccc(NC(=O)C(c2ccccc2)N2CCNC(=O)C2)c1` (stereo not drawn), the kinetic solubility was greater than 50.9 µg/mL.
For `O=S1(=O)CCN(C(CCO)c2cccc(C(F)(F)F)c2)CC1` (stereo not drawn), the solubility (kinetic) is greater than 50.6 µg/mL.
For `CCC(C(=O)N/N=C(\C)c1cccnc1)c1ccccc1` (stereo not drawn), the kinetic solubility is greater than 42.2 µg/mL.
For `CCC(C(=O)Nc1ccc([N+](=O)[O-])cn1)c1ccccc1` (stereo not drawn) the value was 39.3 µg/mL (≈ 138 µM).
The compound `c1ccc(CCCN2CCN(c3ccccn3)CC2)cc1` displayed a kinetic solubility of 26.8 µg/mL (≈ 95.2 µM).
Compound `O=C(NCC(c1ccco1)N1CCCCC1)c1cnc(Cl)c(Cl)c1` (stereo not drawn) had a kinetic solubility greater than 55.2 µg/mL.
`CN1c2ccccc2C(=O)NC1c1ccc([N+](=O)[O-])s1` (stereo not drawn) yielded a kinetic solubility of 31.2 µg/mL (≈ 108 µM).
In the case of `O=C(NCc1cccnc1)NC(=O)c1ccc(Cl)cc1`, the kinetic solubility is 3.8 µg/mL (≈ 13.1 µM).
Compound `COc1ccc(N2CCc3c(C)nc4c(OC)cc(OC)cc4c32)cc1` came in with a solubility (kinetic) greater than 52.6 µg/mL.
Compound `Cc1c(C)n(CCN(C)C)c2ncnc(NCc3ccccc3)c12` had a solubility (kinetic) of 42.9 µg/mL (≈ 133 µM).
As to `CC(=O)c1cccc(NC(=O)NCc2ccc3c(c2)OCO3)c1`, the solubility (kinetic) turned out to be 9.2 µg/mL (≈ 29.5 µM).
As to `Cc1nc2ccc(Cl)cc2c(=O)n1-c1ccc([N+](=O)[O-])cc1`, the solubility (kinetic) was 3.7 µg/mL (≈ 11.7 µM).
For `CC(OC(=O)c1c[nH]c2ccccc12)C(=O)N1CCCC1` (stereo not drawn), the solubility (kinetic) was greater than 42.9 µg/mL.
As to `CC1CCN(CC(O)COC2CC(C)CC(C)(C)C2)CC1.Cl` (stereo not drawn), the kinetic solubility turned out to be 45.5 µg/mL.
With `COc1ccccc1CNC(=O)CS(=O)(=O)c1ccccc1`, the solubility (kinetic) worked out at 44 µg/mL (≈ 138 µM).
`O=C(Nc1cccnc1)c1ccc(Cl)c(Cl)c1`: the solubility (kinetic) was 40 µg/mL (≈ 150 µM).
The compound `O=C(C1CC1)N1CCN(c2ccc(F)cc2)CC1` registered a kinetic solubility of 34.7 µg/mL (≈ 140 µM).
Under `Cn1c(N)c(C(=O)COC(=O)C2=NNC(=O)CC2)c(=O)n(C)c1=O` stands greater than 50.6 µg/mL; under `Cn1cc(C(=O)NCC(=O)Nc2ccccc2Br)cn1`, greater than 50.6 µg/mL.
As to `N/C(=N\OC(=O)Cc1cccs1)c1ccc(Cl)cc1`, the kinetic solubility is 5.8 µg/mL (≈ 19.7 µM).
`CSc1ncccc1C(=O)OCc1ccc([N+](=O)[O-])cc1` gave a kinetic solubility of 0.9 µg/mL (≈ 2.96 µM).
